What was measured:
[1] = test system: naïve rats; experiment: Passive one-way inhibitory avoidance learning, naïve rats; format: in vivo, Sprague-Dawley rats; conditions: 5 mg/kg/d i.p., 1 day and 7 days after footshock
Procedure: SAHA was supplied by NatureWise Biotech and Medicals Corporation (Taipei, Taiwan). […] (St. Louis, MO, USA). The BMX and SAHA stock (100 mg/mL) was dissolved in DMSO and diluted with saline to a final concentration of 0.5 mg/mL (in 0.5% DMSO/saline). […] SD rats were randomly divided into 3 groups. For the naïve animal experiments, the BMX-injected or SAHA-injected groups were injected with BMX (5 mg/kg/d) or SAHA (5 mg/kg/d) intraperitoneally 7 d prior to behavioral experiments and during the experimentation. The control group received the 0.5% DMSO/saline injection. The injection volume was 10 μL/g of body weight. The injections were performed once per day. For the amnesia experiment, the protocol was adopted from previous studies with modifications. […] The control group received the 0.5% DMSO/saline injection. The injection volume was 10 μL/g of body weight. […] The apparatus consisted of a trough-shaped alley divided by a sliding door that separates an illuminated safety compartment and a dark compartment. A shock generator that produced current was connected to the floor of the dark compartment (UGO Basile, Comerio (VA), Italy). The method used was adopted from that of previous studies with modifications. The behavioral task, including the training and testing procedures, was recorded between 8:00 AM and 6:00 PM. […]

[2] = test system: CREB; experiment: CREB phosphorylation at Ser133 in hippocampal cultured neurons; format: cell-based, Sprague-Dawley rats
Procedure: The primary hippocampal culture was prepared as described previously. To culture embryonic hippocampal primary neurons, pregnant Sprague-Dawley rats were purchased from the National Laboratory Center in Taiwan. The hippocampal tissue from the embryos of the Sprague-Dawley rats (E19) was dissociated with 100 U/mL of papain (Sigma-Aldrich) and plated onto poly-L-lysine-coated coverslips at a density of 1 × 10^4 cells/cm^2 with a minimal essential medium containing 5% calf serum, 5% horse serum, and 50 ng/mL insulin-transferrin-selenite (Sigma-Aldrich). Three hours after plating, the medium was replaced with 2% of a B27-neurobasal medium (Invitrogen, Carlsbad, CA, USA) containing 0.5 mM glutamine and 12.5 μM glutamate.
The hippocampus tissue and primary hippocampal cells were lysed and sonicated in an RIPA buffer (50 mM Tris-HCl (pH 7.4), 150 mM NaCl, 2 mM EDTA, 1% IGEPAL CA-630, 1 mM phenylmethylsulfonyl fluoride (PMSF), 20 μg/mL pepstatin A, 20 μg/mL leupeptin, 20 μg/mL aprotinin, 50 mM NaF, and 1 mM Na3VO4). The protocol was performed as described previously. The lysate was resolved by 8% SDS-PAGE. […] The protein bands were quantified using the NIH Image J Software.

[3] = design: method as in PMID 20010553; conditions: cited from earlier work
[4] = test system: naïve rats; experiment: Water-maze learning, naïve rats; format: in vivo, Sprague-Dawley rats; conditions: 5 mg/kg/d i.p.
Procedure: SAHA was supplied by NatureWise Biotech and Medicals Corporation (Taipei, Taiwan). […] (St. Louis, MO, USA). The BMX and SAHA stock (100 mg/mL) was dissolved in DMSO and diluted with saline to a final concentration of 0.5 mg/mL (in 0.5% DMSO/saline). […] SD rats were randomly divided into 3 groups. For the naïve animal experiments, the BMX-injected or SAHA-injected groups were injected with BMX (5 mg/kg/d) or SAHA (5 mg/kg/d) intraperitoneally 7 d prior to behavioral experiments and during the experimentation. The control group received the 0.5% DMSO/saline injection. The injection volume was 10 μL/g of body weight. The injections were performed once per day. For the amnesia experiment, the protocol was adopted from previous studies with modifications. […] The control group received the 0.5% DMSO/saline injection. The injection volume was 10 μL/g of body weight. […] The method was adopted from that of a previous study with modifications. A plastic circular pool 2.0 m in diameter and 0.6 m in height was filled with water (25 ± 2°C) to a depth of 20 cm. A circular platform (8 cm in diameter) was placed at a specific location from the edge of the pool and submerged 2-3 cm below the water surface. Water was made cloudy by adding toxic-free dye. Distinctive visual cues were set on the wall. For spatial learning, animals were subjected to 3 trials per day, with one trial early in the morning, one trial at noon, and another in the late afternoon. The training procedure lasted 4 days, and a total of 12 trials were given. This procedure was adopted because spaced training is a better paradigm to facilitate memory consolidation. For these trials, the rats were positioned at different starting points spaced equally around the perimeter of the pool in random order. They had 120 s to find the hidden platform. […] The time each animal took to reach the platform was recorded as the escape latency. […] The rats were placed in the pool with the platform removed, and the time they spent in each quadrant (Quadrants 1, 2, 3, and 4) was recorded. […]

[5] = test system: Sco-induced amnesia rats; experiment: Passive one-way avoidance, Sco-induced memory impairment; format: in vivo, Sprague-Dawley rats; conditions: Sco 1.5 mg/kg/d; BMX or SAHA 5 mg/kg/d i.p.; 1 day and 7 days after footshock
Procedure: The BMX and SAHA stock (100 mg/mL) was dissolved in DMSO and diluted with saline to a final concentration of 0.5 mg/mL (in 0.5% DMSO/saline). Sco was dissolved in saline to a final concentration of 0.15 mg/mL based on previous studies [35, 36]. SD rats were randomly divided into 3 groups. For the naïve animal experiments, the BMX-injected or SAHA-injected groups were injected with BMX (5 mg/kg/d) or SAHA (5 mg/kg/d) intraperitoneally 7 d prior to behavioral experiments and during the experimentation. The control group received the 0.5% DMSO/saline injection. The injection volume was 10 μL/g of body weight. The injections were performed once per day. For the amnesia experiment, the protocol was adopted from previous studies [35, 36] with modifications. The Sco-injected (SAHA + Sco) or (BMX + Sco)-injected groups were injected with Sco (1.5 mg/kg/d), SAHA (5 mg/kg/d) or BMX (5 mg/kg/d), intraperitoneally 7 d prior to behavioral experiments and during the experimentation. The control group received the 0.5% DMSO/saline injection. The injection volume was 10 μL/g of body weight. […]
The apparatus consisted of a trough-shaped alley divided by a sliding door that separates an illuminated safety compartment and a dark compartment. […] The behavioral task, including the training and testing procedures, was recorded between 8:00 AM and 6:00 PM. […]

For `O=C(CCCCCCC(=O)Nc1ccccc1)NO` [SAHA, suberoylanilide hydroxamic acid, reference compound], the “retention time in the illuminated chamber” value [1] is listed as “No difference in retention performance”, the “CREB phosphorylation at Ser133” value [2] is listed as “increased CREB phosphorylation at Ser133” and the “crossing of the blood-brain barrier” value [3] is listed as “cross the blood-brain barrier (BBB)”. The “escape latency in finding the hidden platform” value [4] was “shortened escape latency”, the “visual discrimination ability, motor coordination, and motivational state (swimming speed, visible platform learning)” value [4] was “Neither BMX nor SAHA affects” and the “probe trial, time spent in target quadrant” value ([4]; day 5) was “showed no difference compared with the control group”. The “retention time in the illuminated chamber” value [5] was “showed less retention time in the illuminated chamber”.

— article PMC3625590, “NBM-T-L-BMX-OS01, Semisynthesized from Osthole, Is a Novel Inhibitor of Histone Deacetylase and Enhances Learning and Memory in Rats” (Evidence-based Complementary and Alternative Medicine : eCAM, 2013)
